Test results taken from ChEMBL document CHEMBL5523679, “Discovery of 1,2,3-triazole incorporated indole-piperazines as potent antitubercular agents: Design, synthesis, in vitro biological evaluation, molecular docking and ADME studies” (Bioorg Med Chem, 2024).
≈ marks a conversion by molar mass, not a printed value.

Experiments:
[1] = system: Mycobacterium tuberculosis; test: Antimycobacterial activity against Mycobacterium tuberculosis H37Rv assessed as bacterial growth inhibition by microplate Alamar blue assay; format: functional
Escherichia coli [2] = test: Antibacterial activity against Escherichia coli assessed as inhibition zone at 75 ug/ml by diffusion method; format: functional; details: read-out: IZ
Escherichia coli [3] = test: Antibacterial activity against Escherichia coli assessed as inhibition zone at 50 ug/ml by diffusion method; format: functional; details: read-out: IZ
Escherichia coli [4] = test: Antibacterial activity against Escherichia coli assessed as inhibition zone at 25 ug/ml by diffusion method; format: functional; details: read-out: IZ
Staphylococcus aureus [5] = test: Antibacterial activity against Staphylococcus aureus assessed as inhibition zone at 75 ug/ml by diffusion method; format: functional; details: read-out: IZ
Staphylococcus aureus [6] = test: Antibacterial activity against Staphylococcus aureus assessed as inhibition zone at 50 ug/ml by diffusion method; format: functional; details: read-out: IZ
Staphylococcus aureus [7] = test: Antibacterial activity against Staphylococcus aureus assessed as inhibition zone at 25 ug/ml by diffusion method; format: functional; details: read-out: IZ
Pseudomonas aeruginosa [8] = test: Antibacterial activity against Pseudomonas aeruginosa assessed as inhibition zone at 75 ug/ml by diffusion method; format: functional; details: read-out: IZ
Pseudomonas aeruginosa [9] = test: Antibacterial activity against Pseudomonas aeruginosa assessed as inhibition zone at 50 ug/ml by diffusion method; format: functional; details: read-out: IZ
Pseudomonas aeruginosa [10] = test: Antibacterial activity against Pseudomonas aeruginosa assessed as inhibition zone at 25 ug/ml by diffusion method; format: functional; details: read-out: IZ
[11] = Cytotoxicity against African green monkey Vero cells measured after 72 hrs by MTT assay; format: toxicity, cell-based; details: chlorocebus sabaeus
[12] = Selectivity index, ratio of CC50 for African green monkey Vero cells to MIC for Mycobacterium tuberculosis H37Rv; format: toxicity; details: read-out: Selectivity Index
[13] = Cytotoxicity against African green monkey Vero cells assessed as inhibition of cell growth at 6.25 ug/ml measured after 72 hrs by MTT assay relative to control; format: toxicity, cell-based; details: chlorocebus sabaeus, at 6.25 µg/mL

Row | Structure (SMILES) | MIC [1] [µM] | zone of inhibition at 75 µg/mL (Escherichia coli [2]) [mm] | zone of inhibition at 50 µg/mL (Escherichia coli [3]) [mm] | zone of inhibition at 25 µg/mL (Escherichia coli [4]) [mm] | zone of inhibition at 75 µg/mL (Staphylococcus aureus [5]) [mm] | zone of inhibition at 50 µg/mL (Staphylococcus aureus [6]) [mm] | zone of inhibition at 25 µg/mL (Staphylococcus aureus [7]) [mm] | zone of inhibition at 75 µg/mL (Pseudomonas aeruginosa [8]) [mm] | zone of inhibition at 50 µg/mL (Pseudomonas aeruginosa [9]) [mm] | zone of inhibition at 25 µg/mL (Pseudomonas aeruginosa [10]) [mm] | CC50 at 72 h [11] [µg/mL] | selectivity ratio [12] | inhibition at 72 h, 6.25 ug/ml [13] [%]
1 | O=C(CCc1c[nH]c2ccccc12)N1CCN(S(=O)(=O)c2ccc(F)cc2)CC1 | > 120 | 17 | 15 | 13 | 20 | 15 | 13 | 18 | 15 | 13 |  |  | 
2 | Cc1ccc(S(=O)(=O)N2CCN(C(=O)CCc3c[nH]c4ccccc34)CC2)cc1 | > 120 | 18 | 15 | 13 | 15 | 13 | 10 | 18 | 15 | 10 |  |  | 
3 | O=C(CCc1cn(Cc2ccc(F)cc2)c2ccccc12)N1CCN(C(=O)c2ccc(F)cc2)CC1 | 12.8 | 18 | 15 |  | 23 | 17 | 13 | 13 |  |  | 619 (≈ 1270 µM) | 198 | 31.9
4 | O=C(CCc1cn(Cc2cn(Cc3ccc(F)cc3)nn2)c2ccccc12)N1CCN(S(=O)(=O)c2ccc(F)cc2)CC1 | 2.6 | 25 | 20 | 13 | 20 | 18 | 13 | 15 | 10 |  | 1700 (≈ 2810 µM) | 1060 | 11.9
5 | O=C(Cc1c[nH]c2ccccc12)N1CCN(S(=O)(=O)c2ccccc2)CC1 | > 120 | 17 | 15 | 13 | 18 | 15 | 13 | 18 | 15 | 13 |  |  | 
6 | Cc1ccc(C(=O)N2CCN(C(=O)Cc3cn(Cc4ccc(F)cc4)c4ccccc34)CC2)cc1 | 26.6 | 15 | 13 |  | 20 | 15 | 10 | 18 | 15 | 10 |  |  | 
7 | O=C(CCc1cn(Cc2cn(Cc3ccc(F)cc3)nn2)c2ccccc12)N1CCN(C(=O)c2ccnc(Cl)c2)CC1 | 2.7 | 20 | 18 |  | 18 | 13 | 13 | 15 | 13 | 10 | 1080 (≈ 1840 µM) | 673 | 11.8
8 | Cc1ccc(S(=O)(=O)N2CCN(C(=O)Cc3c[nH]c4ccccc34)CC2)cc1 | > 120 | 18 | 15 | 12 | 15 | 12 | 10 | 15 | 13 | 10 |  |  | 
9 | Cc1ccc(C(=O)N2CCN(C(=O)CCc3cn(Cc4ccc(F)cc4)c4ccccc34)CC2)cc1 | 51.7 | 17 | 15 |  | 20 | 18 | 13 | 18 | 15 | 10 |  |  | 
10 | Cc1ccc(C(=O)N2CCN(C(=O)CCc3cn(Cc4cn(Cc5ccc(F)cc5)nn4)c4ccccc34)CC2)cc1 | 5.5 | 25 | 20 | 15 | 20 | 13 | 13 | 13 | 10 |  | 1320 (≈ 2340 µM) | 424 | 9.4
11 | O=C(Cc1cn(Cc2ccc(F)cc2)c2ccccc12)N1CCN(S(=O)(=O)c2ccccc2)CC1 | 50.8 | 15 | 13 |  | 20 | 18 | 15 | 18 | 15 | 10 |  |  | 
12 | O=C(CCc1cn(Cc2cn(Cc3ccc(F)cc3)nn2)c2ccccc12)N1CCN(C(=O)c2ccc(F)cc2)CC1 | 2.8 | 23 | 20 | 15 | 20 | 15 | 13 | 13 |  |  | 1200 (≈ 2110 µM) | 750 | 11.7
13 | O=C(CCc1cn(Cc2cn(Cc3ccc(F)cc3)nn2)c2ccccc12)N1CCN(C(=O)c2cccnc2)CC1 | 2.9 | 25 | 23 | 15 | 18 | 15 | 6 | 10 |  |  | 1170 (≈ 2120 µM) | 732 | 11.7
14 | Cc1ccc(S(=O)(=O)N2CCN(C(=O)CCc3cn(Cc4cn(Cc5ccc(F)cc5)nn4)c4ccccc34)CC2)cc1 | 20.8 | 20 | 20 | 15 | 20 | 15 | 12 | 15 | 13 | 9 |  |  | 
15 | O=C(CCc1cn(Cc2ccc(F)cc2)c2ccccc12)N1CCN(S(=O)(=O)c2ccccc2)CC1 | 49.4 | 14 | 12 |  | 20 | 18 | 15 | 18 | 15 | 10 |  |  | 
16 | O=C(CCc1cn(Cc2ccc(F)cc2)c2ccccc12)N1CCN(C(=O)c2ccc(Cl)cc2)CC1 | 12.4 | 18 | 15 |  | 23 | 19 | 13 | 13 | 10 |  | 385 (≈ 764 µM) | 61.6 | 36.4
17 | O=C(CCc1cn(Cc2cn(Cc3ccc(F)cc3)nn2)c2ccccc12)N1CCN(C(=O)c2ccc(Cl)cc2)CC1 | 10.7 | 23 | 20 | 13 | 18 | 15 | 6 | 15 | 12 |  | 986 (≈ 1680 µM) | 158 | 7.9
18 | O=C(CCc1cn(Cc2cn(Cc3ccc(F)cc3)nn2)c2ccccc12)N1CCN(S(=O)(=O)c2ccc(Cl)cc2)CC1 | 20.1 | 24 | 20 | 15 | 20 | 13 | 10 | 18 | 15 | 10 |  |  | 
19 | O=C(Cc1cn(Cc2ccc(F)cc2)c2ccccc12)N1CCN(C(=O)c2ccc(F)cc2)CC1 | 13.2 | 18 | 15 |  | 21 | 18 | 15 | 13 | 10 |  | 448 (≈ 946 µM) | 71.7 | 33.8
20 | O=C(CCc1cn(Cc2cn(Cc3ccc(F)cc3)nn2)c2ccccc12)N1CCN(C(=O)c2cccnc2Cl)CC1 | 5.3 | 25 | 23 | 13 | 18 | 15 | 10 | 13 | 10 |  | 946 (≈ 1610 µM) | 303 | 10.1
